Measurements reported in US20240043404A1 (AbbVie Inc., priority 2009, published 2024).
pEC50: −log10 of the molar value.

test system: RS4;11 cells; assay: RS4;11 cell viability assay (CellTiter Glo); assay type: cell-based, human; conditions: Homo sapiens, RS4-11, 48 h, 50,000 cells per well, 10% human serum, 48 hours; read-out: RS4; 11 EC50 Values;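 also: acute lymphoblastic leukemia line RS4,11, EC50 derived from percentage of viable cells after treatment relative to untreated controls, cell killing taken as a measure of Bcl-2 inhibition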
Experimental: The acute lymphoblastic leukemia (ALL) cell line RS4;11 was used as the primary human cell line to assess the cellular activity of Bcl-2 selective agents in vitro and their efficacy in vivo.
Cell cytotoxicity EC50 values were assessed using CellTiter Glo (Promega) according to the manufacturer's recommendations. The EC50 values were determined as a percentage of viable cells following treatment compared to the untreated control cells.

| Compound | pEC50 |
| --- | --- |
| CC(C)N1CCC2(CCC(c3ccc(Cl)cc3)=C(CN3CCN(c4ccc(C(=O)NS(=O)(=O)c5ccc(NCC6CCOCC6)c(C(F)(F)F)c5)c(Oc5cnc6[nH]ccc6c5)c4)CC3)C2)CC1 [Example 273, 4-(4-{[9-(4-chlorophenyl)-3-isopropyl-3-azaspiro[5.5]undec-8-en-8-yl]methyl}piperazin-1-yl)-2-(1H-pyrrolo[2,3-b]pyridin-5-yloxy)-N-({4-[(tetrahydro-2H-pyran-4-ylmethyl)amino]-3-(trifluoromethyl)phenyl}sulfonyl)benzamide] | 6.68 |
| CC1(C)CCC(CN2CCN(c3ccc(C(=O)NS(=O)(=O)c4ccc(OC[C@H]5CC[C@H](N6CCOCC6)CC5)c(Cl)c4)c(Oc4cnc5[nH]ccc5c4)c3)CC2)=C(c2ccc(Cl)cc2)C1 [Example 303, N-[(3-chloro-4-{[trans-4-(morpholin-4-yl)cyclohexyl]methoxy}phenyl)sulfonyl]-4-(4-{[2-(4-chlorophenyl)-4,4-dimethylcyclohex-1-en-1-yl]methyl}piperazin-1-yl)-2-(1H-pyrrolo[2,3-b]pyridin-5-yloxy)benzamide] | 7.32 |
| CC1(C)CCC(CN2CCN(c3ccc(C(=O)NS(=O)(=O)c4ccc(O[C@H]5CC[C@H](N6CCOCC6)CC5)c([N+](=O)[O-])c4)c(Oc4cnc5[nH]ccc5c4)c3)CC2)=C(c2ccc(Cl)cc2)C1 [Example 60, Trans-4-(4-{[2-(4-chlorophenyl)-4,4-dimethylcyclohex-1-en-1-yl]methyl}piperazin-1-yl)-N-({4-[(4-morpholin-4-ylcyclohexyl)oxy]-3-nitrophenyl}sulfonyl)-2-(1H-pyrrolo[2,3-b]pyridin-5-yloxy)benzamide] | 7.23 |
| CC1(C)CCC(CN2CCN(c3ccc(C(=O)NS(=O)(=O)c4cnc(OC[C@@H]5CCN(C(CF)CF)C5)c(Cl)c4)c(Oc4cnc5[nH]ccc5c4)c3)CC2)=C(c2ccc(Cl)cc2)C1 [Example 280, N-[(5-chloro-6-{[(3R)-1-(1,3-difluoropropan-2-yl)pyrrolidin-3-yl]methoxy}pyridin-3-yl)sulfonyl]-4-(4-{[2-(4-chlorophenyl)-4,4-dimethylcyclohex-1-en-1-yl]methyl}piperazin-1-yl)-2-(1H-pyrrolo[2,3-b]pyridin-5-yloxy)benzamide] | 6.34 |
| CC1(C)CCC(CN2CCN(c3ccc(C(=O)NS(=O)(=O)c4ccc(NCC5CN(S(C)(=O)=O)CCO5)c([N+](=O)[O-])c4)c(Oc4cnc5[nH]ccc5c4)c3)CC2)=C(c2ccc(Cl)cc2)C1 (stereo not shown) [Example 319, 4-(4-{[2-(4-chlorophenyl)-4,4-dimethylcyclohex-1-en-1-yl]methyl}piperazin-1-yl)-N-{[4-({[4-(methylsulfonyl)morpholin-2-yl]methyl}amino)-3-nitrophenyl]sulfonyl}-2-(1H-pyrrolo[2,3-b]pyridin-5-yloxy)benzamide] | 8.35 |
| CC1(C)CCC(CN2CCN(c3ccc(C(=O)NS(=O)(=O)c4ccc(OCC5(F)CCNCC5)c([N+](=O)[O-])c4)c(Oc4cnc5[nH]ccc5c4)c3)CC2)=C(c2ccc(Cl)cc2)C1 [Example 127, 4-(4-{[2-(4-chlorophenyl)-4,4-dimethylcyclohex-1-en-1-yl]methyl}piperazin-1-yl)-N-({4-[(4-fluoropiperidin-4-yl)methoxy]-3-nitrophenyl}sulfonyl)-2-(1H-pyrrolo[2,3-b]pyridin-5-yloxy)benzamide] | 8.01 |
| CN1CCN(Nc2ccc(S(=O)(=O)NC(=O)c3ccc(N4CCN(CC5=C(c6ccc(Cl)cc6)CC(C)(C)OC5)CC4)cc3Oc3cnc4[nH]ccc4c3)cc2[N+](=O)[O-])CC1 [Example 67, 4-(4-{[4-(4-chlorophenyl)-6,6-dimethyl-5,6-dihydro-2H-pyran-3-yl]methyl}piperazin-1-yl)-N-({4-[(4-methylpiperazin-1-yl)amino]-3-nitrophenyl}sulfonyl)-2-(1H-pyrrolo[2,3-b]pyridin-5-yloxy)benzamide] | 7.31 |
| CC1(C)CCC(CN2CCN(c3ccc(C(=O)NS(=O)(=O)c4cnc(OCC5CCc6nccn6C5)c(Cl)c4)c(Oc4cnc5[nH]ccc5c4)c3)CC2)=C(c2ccc(Cl)cc2)C1 (stereo not shown) [Example 342, 4-(4-{[2-(4-chlorophenyl)-4,4-dimethylcyclohex-1-en-1-yl]methyl}piperazin-1-yl)-N-{[5-chloro-6-(5,6,7,8-tetrahydroimidazo[1,2-a]pyridin-6-ylmethoxy)pyridin-3-yl]sulfonyl}-2-(1H-pyrrolo[2,3-b]pyridin-5-yloxy)benzamide] | 7.29 |
| O=C(NS(=O)(=O)c1cnc(OCC2(F)CCOCC2)c(Cl)c1)c1ccc(N2CCC(F)(Cc3ccccc3-c3ccc(Cl)cc3)CC2)cc1Oc1cnc2[nH]ccc2c1 [Example 272, 4-{4-[(4′-chlorobiphenyl-2-yl)methyl]-4-fluoropiperidin-1-yl}-N-({5-chloro-6-[(4-fluorotetrahydro-2H-pyran-4-yl)methoxy]pyridin-3-yl}sulfonyl)-2-(1H-pyrrolo[2,3-b]pyridin-5-yloxy)benzamide] | 6.08 |
| CC1(C)CCC(CN2CCN(c3ccc(C(=O)NS(=O)(=O)c4ccc(NCC5(N)CCOCC5)c([N+](=O)[O-])c4)c(Oc4cnc5[nH]ccc5c4)c3)CC2)=C(c2ccc(Cl)cc2)C1 [Example 108, N-[(4-{[(4-aminotetrahydro-2H-pyran-4-yl)methyl]amino}-3-nitrophenyl)sulfonyl]-4-(4-{[2-(4-chlorophenyl)-4,4-dimethylcyclohex-1-en-1-yl]methyl}piperazin-1-yl)-2-(1H-pyrrolo[2,3-b]pyridin-5-yloxy)benzamide] | 7.62 |
| CC1(C)CCC(CN2CCN(c3ccc(C(=O)NS(=O)(=O)c4ccc(OCC5(F)CCC(N(CCC#N)C6CC6)CC5)c([N+](=O)[O-])c4)c(Oc4cnc5[nH]ccc5c4)c3)CC2)=C(c2ccc(Cl)cc2)C1 (stereo not shown) [Example 363, 4-(4-{[2-(4-chlorophenyl)-4,4-dimethylcyclohex-1-en-1-yl]methyl}piperazin-1-yl)-N-{[4-({4-[(2-cyanoethyl)(cyclopropyl)amino]-1-fluorocyclohexyl}methoxy)-3-nitrophenyl]sulfonyl}-2-(1H-pyrrolo[2,3-b]pyridin-5-yloxy)benzamide] | 7.58 |
| CC1(C)CCC(CN2CCN(c3ccc(C(=O)NS(=O)(=O)c4ccc(NC5CCC(NC6CC6(F)F)CC5)c([N+](=O)[O-])c4)c(Oc4cnc5[nH]ccc5c4)c3)CC2)=C(c2ccc(Cl)cc2)C1 (stereo not shown) [Example 349, 4-(4-{[2-(4-chlorophenyl)-4,4-dimethylcyclohex-1-en-1-yl]methyl}piperazin-1-yl)-N-{[4-({4-[(2,2-difluorocyclopropyl)amino]cyclohexyl}amino)-3-nitrophenyl]sulfonyl}-2-(1H-pyrrolo[2,3-b]pyridin-5-yloxy)benzamide] | 7.64 |

Other lines, results leading:

| pEC50 | Compound |
| --- | --- |
| 9.60 | CN1CCC(CNc2ccc(S(=O)(=O)NC(=O)c3ccc(N4CCN(CC5=C(c6ccc(Cl)cc6)CC(C)(C)CC5)CC4)cc3Oc3cnc4[nH]ccc4c3)cc2[N+](=O)[O-])CC1 [Example 65, 4-(4-{[2-(4-chlorophenyl)-4,4-dimethylcyclohex-1-en-1-yl]methyl}piperazin-1-yl)-N-[(4-{[(1-methylpiperidin-4-yl)methyl]amino}-3-nitrophenyl)sulfonyl]-2-(1H-pyrrolo[2,3-b]pyridin-5-yloxy)benzamide] |
| 7.24 | CO[C@H]1CC[C@H](CNc2ccc(S(=O)(=O)NC(=O)c3ccc(N4CCN(CC5=C(c6ccc(Cl)cc6)CCC6(CCCC6)C5)CC4)cc3Oc3cnc4[nH]ccc4c3)cc2[N+](=O)[O-])CC1 [Example 74, Trans-4-(4-{[8-(4-chlorophenyl)spiro[4.5]dec-7-en-7-yl]methyl}piperazin-1-yl)-N-[(4-{[(4-methoxycyclohexyl)methyl]amino}-3-nitrophenyl)sulfonyl]-2-(1H-pyrrolo[2,3-b]pyridin-5-yloxy)benzamide] |
| 8.01 | O=C(NS(=O)(=O)c1ccc(NCC2CCOCC2)c([N+](=O)[O-])c1)c1ccc(N2CCN(CC3=C(c4ccc(Cl)cc4)CC4(CC3)CC4)CC2)cc1Oc1cnc2[nH]ccc2c1 [Example 328, 4-(4-{[5-(4-chlorophenyl)spiro[2.5]oct-5-en-6-yl]methyl}piperazin-1-yl)-N-({3-nitro-4-[(tetrahydro-2H-pyran-4-ylmethyl)amino]phenyl}sulfonyl)-2-(1H-pyrrolo[2,3-b]pyridin-5-yloxy)benzamide] |
| 8.17 | COC1(C)CCC(c2ccc(Cl)cc2)=C(CN2CCN(c3ccc(C(=O)NS(=O)(=O)c4ccc(NCC5CCOCC5)c([N+](=O)[O-])c4)c(Oc4cnc5[nH]ccc5c4)c3)CC2)C1 (stereo not shown) [Example 378, 4-(4-{[2-(4-chlorophenyl)-5-methoxy-5-methylcyclohex-1-en-1-yl]methyl}piperazin-1-yl)-N-({3-nitro-4-[(tetrahydro-2H-pyran-4-ylmethyl)amino]phenyl}sulfonyl)-2-(1H-pyrrolo[2,3-b]pyridin-5-yloxy)benzamide] |
| 8.00 | COCC1(C)CCC(c2ccc(Cl)cc2)=C(CN2CCN(c3ccc(C(=O)NS(=O)(=O)c4ccc(NCC5CCOCC5)c([N+](=O)[O-])c4)c(Oc4cnc5[nH]ccc5c4)c3)CC2)C1 (stereo not shown) [Example 360, 4-(4-{[2-(4-chlorophenyl)-5-(methoxymethyl)-5-methylcyclohex-1-en-1-yl]methyl}piperazin-1-yl)-N-({3-nitro-4-[(tetrahydro-2H-pyran-4-ylmethyl)amino]phenyl}sulfonyl)-2-(1H-pyrrolo[2,3-b]pyridin-5-yloxy)benzamide] |
| 8.15 | CC1(C)CCC(CN2CCN(c3ccc(C(=O)NS(=O)(=O)c4ccc(NCC5COCCO5)c([N+](=O)[O-])c4)c(Oc4cnc5[nH]ccc5c4)c3)CC2)=C(c2ccc(Cl)cc2)C1 (stereo not shown) [Example 25, 4-(4-{[2-(4-chlorophenyl)-4,4-dimethylcyclohex-1-en-1-yl]methyl}piperazin-1-yl)-N-({4-[(1,4-dioxan-2-ylmethyl)amino]-3-nitrophenyl}sulfonyl)-2-(1H-pyrrolo[2,3-b]pyridin-5-yloxy)benzamide] |
| 7.81 | COCC1CCC(CNc2ccc(S(=O)(=O)NC(=O)c3ccc(N4CCN(CC5=C(c6ccc(Cl)cc6)CC(C)(C)CC5)CC4)cc3Oc3cnc4[nH]ccc4c3)cc2[N+](=O)[O-])CC1 (stereo not shown) [Example 374, 4-(4-{[2-(4-chlorophenyl)-4,4-dimethylcyclohex-1-en-1-yl]methyl}piperazin-1-yl)-N-{[4-({[4-(methoxymethyl)cyclohexyl]methyl}amino)-3-nitrophenyl]sulfonyl}-2-(1H-pyrrolo[2,3-b]pyridin-5-yloxy)benzamide] |
